Consider two compounds from publication PMC10315696, “PSMA-GCK01: A Generator-Based ^99mTc/^188Re Theranostic Ligand for the Prostate-Specific Membrane Antigen” (Journal of Nuclear Medicine, 2023).

Data set [1] deals with patients with metastatic castration-resistant prostate cancer. The experiment in a line: Clinical imaging and therapy under compassionate care. The format is in vivo, humans. The procedure:
After giving written informed consent, 3 patients with metastatic castration-resistant prostate cancer received PSMA-radioligand therapy (RLT) and the related companion diagnostic under compassionate-care regulations. Prospective clinical trial registration is not required for compassionate care that is performed under an individual medical indication.
The timeline of imaging time points is illustrated in Figure 2.

Data set [2] deals with mice. Briefly: Toxicologic investigation (OECD guideline).
Description: The evaluation was conducted using well-known standard methods ([16],[17]).

*1 amine or outer side, *2 acyl side, *3 side chain or, on linkers, in order; H or OH if unused. Where a SMILES comes first, the peptide text is derived from it. [ ]: non-standard residue; d: D form. The star is where a group is joined. X2 = O=C(O)CCC(NC(=O)NC(CCCCN*)C(=O)O)C(=O)O; 2Nal = N[CH](Cc1ccc2ccccc2c1)C(=O)O; X1 = O=C(C1CCC(N[*:1])CC1)[*:2]; Mercaptoacetyl = O=C(CS)*

`O=C([O-])CN1CCN(CC(=O)[O-])CCN(CC(=O)NCC2CCC(C(=O)N[C@@H](Cc3ccc4ccccc4c3)C(=O)NCCCC[C@H](NC(=O)N[C@@H](CCC(=O)O)C(=O)O)C(=O)O)CC2)CCN(CC(=O)[O-])CC1.[177Lu+3]` (some centres unmarked) [^177Lu-PSMA-617, reference compound]: the clearance route result in data set [1] (dual-photopeak imaging) was “combined renal and hepatointestinal clearance route”.
With `O=C(O)CCC(NC(=O)NC(CCCCNC(=O)C(Cc1ccc2ccccc2c1)NC(=O)C1CCC(NC(=O)C(CO)NC(=O)C(CO)NC(=O)C(CO)NC(=O)CS)CC1)C(=O)O)C(=O)O` (centres unmarked) [PSMA-GCK01] (Mercaptoacetyl-SSS[X1][2Nal]-X2; configuration not given here), the “liver-to-kidney uptake ratio compared with PSMA-617” value in data set [1] (initially, intraindividual comparison) is on record as “higher”. In data set [2] (mice), the mortality entry is recorded as “No test article–related mortality”. Moreover, in data set [2] (mice, third-party preclinical research organization), the “dose without toxicologic effect” value is “up to 2 mg/kg”. Moreover, the “organ weights or macroscopic observations” value in data set [2] (terminal or recovery euthanasia) is reported as “No differences”.
